Experimental data taken from PMC9228270, “Design, Synthesis, In Silico Studies and Inhibitory Activity towards Bcr-Abl, BTK and FLT3-ITD of New 2,6,9-Trisubstituted Purine Derivatives as Potential Agents for the Treatment of Leukaemia” (Pharmaceutics, 2022).

Columns and labels:
[1] = tested on: caspase 3/7 activity in K562 cells; experiment: Caspase-3/7 assay, K562; assay type: cell-based; details: 24 h, at 1 µM
Method: (§1) MV4-11 and K562 cells were kept in a 96-well plate were treated with increasing concentrations of compound 4i and 5b for 24 h. After this period, caspase-3/7 assay buffer (150 mM HEPES pH 7.4, 450 mM NaCl, 150 mM KCl, 30 mM MgCl2, 1.2 mM EGTA, 1.5% Nonidet P40, 0.3% CHAPS, 30% sucrose, 30 mM DTT, and 3 mM PMSF) containing 150 µM peptide substrate Ac-DEVD-AMC (Enzo Life Sciences, Farmingdale, NY, USA) was added, and after 2 h incubation, the fluorescence of AMC was measured using a Fluoroskan Ascent microplate reader (Labsystems) at 346 nm/442 nm (excitation/emission).

[2] = tested on: Bcr-Abl signalling in K562 cells; experiment: Immunoblotting of Bcr-Abl downstream signalling in K562; assay type: cell-based; details: 4 h
Method: (§2) Protein changes in the treated cells were analysed using immunoblotting. Briefly, cell lysates were separated on SDS-polyacrylamide gels and electroblotted onto nitrocellulose membranes. After blocking, overnight incubation with specific primary antibodies and incubation with peroxidase-conjugated secondary antibodies, the peroxidase activity was detected with Super-Signal West Pico reagents (Thermo Scientific, Waltham, MA, USA) using a CCD camera LAS-4000 (Fujifilm). The following specific antibodies were purchased from Cell Signalling: anti-FLT3 (clone 8F2), anti-phospho-FLT3 Y589/591 (clone 30D4), anti-STAT5 (clone D2O6Y), anti-phospho-STAT5 Y694, anti-ERK1/2, anti-phospho-ERK1/2 T202/Y204, anti-Akt (clone C67E7), anti-phospho-Akt S473 (clone D9E), anti-phospho-Bcr Y177, anti-CrkL (clone 32H4), anti-phospho-CrkL Y207, anti-BTK (clone C82B8), anti-phospho-BTK Y223, anti-PLCγ2, anti-phospho-PLCγ2 Y1217, and anti-PARP-1 (clone 46D11). Anti-α-tubulin (clone DM1A) was purchased from Sigma Aldrich.
(§3) Based on their inhibitory effects on recombinant kinases as well as cytotoxic effects in relevant cell line models, the purine derivatives 4i, 5b and 5j were selected for further experiments to confirm the expected molecular mechanism of action. The candidate compounds were tested to determine changes in signalling pathways downstream of the oncogenic kinases in cells. […]

MV4-11 = experiment: Cytotoxicity assay (resazurin), MV4-11; assay type: cell-based; details: Homo sapiens, 72 h, three independent experiments, range 0.1 to 25 µM
Method: (§4) Cytotoxicity assays for the purines were quantified using the resazurin method, a dye to measure redox reactions occurring in the mitochondria of live cells. The cells were treated by tested compounds (in triplicate, six different doses) for 72 h.

Cdk-2/cyclin E = target: T1, Cdk-2/cyclin E (Homo sapiens, UniProt P24941); experiment: Recombinant kinase radioassay, Cdk-2/cyclin E; assay type: biochemical; details: ATP 15 µM, at least three independent experiments, range 0.01–100 µM
T1 construct: made in house
Summary of the method: (§5)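 Radiometric kinase assay: 0.05 µCi [γ-33P]ATP in HEPES pH 7.5 buffer with Mg2+/Mn2+, vanadate, DTT. Commercial BTK with 100 µM poly(Glu:Tyr 4:1), 15 µM ATP. In-house Cdk-2/cyclin E with 1 mg/mL histone H1, 15 µM ATP. H3PO4 stop, phosphocellulose capture, phosphorimager read.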

HL-60 = experiment: Cytotoxicity assay (resazurin), HL-60; assay type: cell-based; details: Homo sapiens, 72 h, three independent experiments, range 0.1 to 25 µM
Method: as §4

PARP-1 cleavage in K562 = experiment: Immunoblotting of PARP-1 cleavage, K562; assay type: cell-based; details: K562 cells, 4 h
Method: as §2, with “Anti-α-tubulin (clone DM1A) was purchased from Sigma Aldrich.” left out
(§6) Finally, we analysed the mechanism of cell death induced by the prepared compounds 4i and 5b. Proteolytic cleavage of PARP-1—a well-established protein involved in apoptosis—was analysed in K562 and MV4-11 treated with respective compounds for 4 h. […] The PARP-1 fragment was not detected in MV4-11 cells treated with 5b because the compound was not effective in inducing apoptosis after 4 h of treatment (Figure 14B).

Bcr-Abl1 = Bcr-Abl1 (Homo sapiens, UniProt P00519); experiment: Recombinant kinase radioassay, Abl; assay type: biochemical; details: ATP 1 µM, at least three independent experiments, range 0.01–100 µM
Bcr-Abl1, sequence (P00519 27-1130): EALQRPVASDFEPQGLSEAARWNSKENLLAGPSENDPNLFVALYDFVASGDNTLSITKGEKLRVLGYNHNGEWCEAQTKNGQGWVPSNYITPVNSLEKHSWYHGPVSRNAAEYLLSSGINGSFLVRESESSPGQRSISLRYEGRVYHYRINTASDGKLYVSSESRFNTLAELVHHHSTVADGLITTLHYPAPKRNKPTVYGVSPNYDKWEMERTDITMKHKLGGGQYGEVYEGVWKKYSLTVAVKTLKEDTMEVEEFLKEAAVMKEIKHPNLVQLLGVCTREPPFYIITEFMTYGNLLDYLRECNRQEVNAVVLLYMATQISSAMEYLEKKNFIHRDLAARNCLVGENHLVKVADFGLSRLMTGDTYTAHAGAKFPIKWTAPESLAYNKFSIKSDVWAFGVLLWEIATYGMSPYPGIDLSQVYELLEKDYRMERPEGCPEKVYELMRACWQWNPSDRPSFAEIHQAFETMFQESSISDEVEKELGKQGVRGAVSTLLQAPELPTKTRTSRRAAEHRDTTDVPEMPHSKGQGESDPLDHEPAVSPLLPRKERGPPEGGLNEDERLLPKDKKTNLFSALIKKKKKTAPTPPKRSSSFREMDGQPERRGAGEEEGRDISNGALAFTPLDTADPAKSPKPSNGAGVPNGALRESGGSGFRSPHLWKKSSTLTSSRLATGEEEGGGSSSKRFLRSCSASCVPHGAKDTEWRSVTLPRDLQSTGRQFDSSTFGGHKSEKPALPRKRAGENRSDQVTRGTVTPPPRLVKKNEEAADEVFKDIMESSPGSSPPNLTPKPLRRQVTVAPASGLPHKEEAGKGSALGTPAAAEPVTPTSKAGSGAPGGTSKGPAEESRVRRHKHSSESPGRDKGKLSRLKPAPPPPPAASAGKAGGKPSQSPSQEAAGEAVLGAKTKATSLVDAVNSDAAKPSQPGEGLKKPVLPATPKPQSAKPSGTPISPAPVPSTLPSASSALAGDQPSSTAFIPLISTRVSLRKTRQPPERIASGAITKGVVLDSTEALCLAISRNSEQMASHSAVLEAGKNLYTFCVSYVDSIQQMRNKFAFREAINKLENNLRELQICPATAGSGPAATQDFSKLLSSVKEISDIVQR

K562 = experiment: Cytotoxicity assay (resazurin), K562; assay type: cell-based; details: Homo sapiens, 72 h, three independent experiments, range 0.1 to 25 µM
Method: as §4

Ramos = experiment: Cytotoxicity assay (resazurin), Ramos; assay type: cell-based; details: Homo sapiens, 72 h, three independent experiments, range 0.1 to 25 µM
Method: as §4

FLT3-ITD = target: T2, FLT3-ITD (Homo sapiens, UniProt P36888, ITD); experiment: Recombinant kinase radioassay, FLT3-ITD; assay type: biochemical; details: recombinant kinase, radioassay; at least three independent experiments, range 0.01–100 µM; read-out: IC50 FLT3-ITD
T2 sequence (P36888 27-993): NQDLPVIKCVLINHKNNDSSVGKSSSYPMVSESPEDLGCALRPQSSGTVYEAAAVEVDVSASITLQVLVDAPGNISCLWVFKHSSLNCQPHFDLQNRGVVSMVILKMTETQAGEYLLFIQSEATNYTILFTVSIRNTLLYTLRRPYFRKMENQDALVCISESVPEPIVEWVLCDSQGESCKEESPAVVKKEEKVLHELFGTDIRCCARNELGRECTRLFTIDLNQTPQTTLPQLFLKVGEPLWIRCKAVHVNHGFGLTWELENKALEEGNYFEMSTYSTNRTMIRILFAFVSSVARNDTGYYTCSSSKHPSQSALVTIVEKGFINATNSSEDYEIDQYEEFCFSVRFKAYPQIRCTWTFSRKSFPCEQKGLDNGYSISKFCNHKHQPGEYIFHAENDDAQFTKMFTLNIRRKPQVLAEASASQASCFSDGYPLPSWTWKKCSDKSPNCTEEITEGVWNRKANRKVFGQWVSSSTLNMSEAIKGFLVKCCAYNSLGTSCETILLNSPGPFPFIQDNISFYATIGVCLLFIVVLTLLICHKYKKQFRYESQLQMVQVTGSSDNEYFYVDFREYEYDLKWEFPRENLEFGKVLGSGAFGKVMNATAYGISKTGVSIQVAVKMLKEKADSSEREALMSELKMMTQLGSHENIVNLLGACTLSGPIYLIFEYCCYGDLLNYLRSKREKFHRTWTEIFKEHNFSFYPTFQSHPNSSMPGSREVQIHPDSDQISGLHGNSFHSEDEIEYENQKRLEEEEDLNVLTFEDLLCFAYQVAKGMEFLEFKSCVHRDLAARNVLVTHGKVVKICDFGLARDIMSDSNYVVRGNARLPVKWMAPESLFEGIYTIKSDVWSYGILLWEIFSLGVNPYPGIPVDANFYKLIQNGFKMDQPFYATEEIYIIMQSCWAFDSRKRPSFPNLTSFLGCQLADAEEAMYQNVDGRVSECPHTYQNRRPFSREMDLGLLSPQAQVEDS
Summary of the method: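 FLT3-ITD kinase, purchased from ProQinase, was tested in a standard radioassay with 100 µM poly (Glu:Tyr; 4:1) substrate, 0.05 µCi [γ-^33P]ATP and test compound in buffer of 60 mM HEPES-NaOH pH 7.5, 3 mM MgCl2, 3 mM MnCl2, 3 µM Na orthovanadate, 1.2 mM DTT and 2.5 µg/50 µL PEG20.000. Phosphorylated substrate was separated on P-81 phosphocellulose and quantified with a FLA-7000 image analyser.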

BTK = target: T3, BTK (Homo sapiens, UniProt Q06187); experiment: Recombinant kinase radioassay, BTK; assay type: biochemical; details: recombinant kinase, radioassay, ATP 15 µM; at least three independent experiments, range 0.01–100 µM; read-out: IC50 BTK
T3 construct: purchased ProQinase
T3 sequence (Q06187 whole entry): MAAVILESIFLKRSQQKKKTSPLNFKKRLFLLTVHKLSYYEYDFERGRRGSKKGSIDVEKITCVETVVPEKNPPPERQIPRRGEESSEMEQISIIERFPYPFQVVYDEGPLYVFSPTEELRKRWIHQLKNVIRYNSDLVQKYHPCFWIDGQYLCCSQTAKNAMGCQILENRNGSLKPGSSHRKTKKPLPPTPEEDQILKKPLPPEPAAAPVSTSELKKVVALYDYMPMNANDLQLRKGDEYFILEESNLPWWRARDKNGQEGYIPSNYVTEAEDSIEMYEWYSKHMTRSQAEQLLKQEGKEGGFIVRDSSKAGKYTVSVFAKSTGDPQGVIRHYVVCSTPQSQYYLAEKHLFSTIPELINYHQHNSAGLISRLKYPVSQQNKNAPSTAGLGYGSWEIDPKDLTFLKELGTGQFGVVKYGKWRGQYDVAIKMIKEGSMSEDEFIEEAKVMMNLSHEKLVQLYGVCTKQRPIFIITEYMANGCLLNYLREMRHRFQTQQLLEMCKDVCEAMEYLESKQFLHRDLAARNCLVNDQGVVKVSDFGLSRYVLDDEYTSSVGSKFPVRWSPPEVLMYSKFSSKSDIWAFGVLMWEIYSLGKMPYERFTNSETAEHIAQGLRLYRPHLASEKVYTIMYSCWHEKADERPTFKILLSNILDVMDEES
Summary of the method: as §5

K562 cells = experiment: Flow cytometry cell cycle, K562; assay type: cell-based; details: 24 h, sub-micromolar concentrations
Method: (§7) Cell cycle effects were measured using flow cytometric determination of DNA content. MV4-11 and K562 cells were treated with tested compounds for 24 h. After the staining with propidium iodide, the DNA content was analysed by flow cytometry using a 488 nm laser (BD FACS Verse with software BD FACSuite^TM, version 1.0.6.). The cell cycle distribution was analysed using ModFit LT (Verity Software House 5.0, Topsham, ME, USA).

CEM = experiment: Cytotoxicity assay (resazurin), CEM; assay type: cell-based; details: Homo sapiens, CCRF-CEM, 72 h, three independent experiments, range 0.1 to 25 µM
Method: as §4

[3] = tested on: FLT3-ITD signalling in MV4-11 cells; experiment: Immunoblotting of FLT3-ITD-dependent pathway in MV4-11; assay type: cell-based; details: 4 h
Method: as §2, §3

[4] = tested on: PARP-1 cleavage in MV4-11; experiment: Immunoblotting of PARP-1 cleavage, MV4-11; assay type: cell-based; details: MV4-11 cells, 4 h
Method: as §2, with “Anti-α-tubulin (clone DM1A) was purchased from Sigma Aldrich.” left out
as §6

[5] = tested on: caspase 3/7 activity in MV4-11 cells; experiment: Caspase-3/7 assay, MV4-11; assay type: cell-based; details: 24 h
Method: as §1

MV4-11 cells = experiment: Flow cytometry cell cycle, MV4-11; assay type: cell-based; details: 24 h, sub-micromolar concentrations
Method: as §7

What does the source list for `CN1CCN(c2ccc(Nc3nc(Nc4ccc(C#N)cc4)c4ncn(CC5CC5)c4n3)cc2)CC1` [Compound 4i, 4-((9-(Cyclopropylmethyl)-2-((4-(4-methylpiperazin-1-yl)phenyl)amino)-9H-purin-6-yl)amino)benzonitrile]?
Relative caspase 3/7 activity [1]: nearly five-fold increase; Concentration from which autophosphorylation of Bcr (pBcr) is inhibited [2]: ≥ 0.08 µM; Level of phosphorylated STAT5 (pSTAT5) and CrkL (pCrkL) [2]: dose-dependently decreased; GI50 (MV4-11): 890 ± 70 nM; IC50 (Cdk-2/cyclin E): 10800 ± 1600 nM; GI50 (HL-60): 3170 ± 570 nM; 89 kDa fragment of PARP-1 (PARP-1 cleavage in K562): increased levels; IC50 (Bcr-Abl1): 100 ± 30 nM; GI50 (K562): 1030 ± 210 nM; GI50 (Ramos): 1490 ± 50 nM; IC50 (FLT3-ITD): 370 nM; IC50 (BTK): 910 ± 190 nM; Cell cycle effect (K562 cells): effectively induced G1 arrest; GI50 (CEM): 1850 ± 100 nM

`CC(C)CCn1cnc2c(Nc3cccc(F)c3)nc(Nc3ccc(N4CCN(C)CC4)cc3)nc21` [Compound 5b, N^6-(3-Fluorophenyl)-9-isopentyl-N^2-(4-(4-methylpiperazin-1-yl)phenyl)-9H-purine-2,6-diamine] was tested. Which GI50 (MV4-11) did it give?
The GI50 was 2890 ± 950 nM.

What about the “Phosphorylation of STAT5” value [3] of the same compound?
The value was “inhibited”.

And the “Autophosphorylation of the oncogenic FLT3-ITD” value ([3]; increasing concentrations)?
Its value is “clear suppression”.

What about the IC50 (Cdk-2/cyclin E) of the same compound?
Its IC50 is 21100 ± 1910 nM.

What about the GI50 (HL-60) of the same compound?
Its GI50 is 2040 ± 580 nM.

What about the PARP-1 fragment [4] of the same compound?
Its PARP-1 fragment is “not detected”.

What about the IC50 (Bcr-Abl1) of the same compound?
The IC50 was > 50000 nM.

What about the “Caspase 3/7 induction” value [5] of the same compound?
The value was “a higher concentration of 5b was required for caspase induction”.

What about the GI50 (K562) of the same compound?
The GI50 was 18600 ± 3730 nM.

What about the GI50 (Ramos) of the same compound?
The GI50 was 18700 ± 3100 nM.

What about the Cell cycle effect (MV4-11 cells) of the same compound?
The Cell cycle effect was “effectively induced G1 arrest”.

And the IC50 (FLT3-ITD)?
The IC50 was 380 nM.

What about the IC50 (BTK) of the same compound?
The IC50 was 3780 ± 860 nM.

And the GI50 (CEM)?
Its GI50 is > 25000 nM.
